Measurements published in patent US20260001874A1 (priority 2022, published 2026).

Key:
VacV-ANCHOR = assay: microbe, parasite or virus in culture; assay type: cell-based, cowpox virus; details: Orthopoxvirus vaccinia, HeLa, read-out: EC50 in vitro VACV
in vitro [1] = details: rabbit
[2] = Pharmacokinetics in Lipiodol/castor oil (formulation B) or DMSO/Lipiodol/castor oil (formulation C), oral or subcutaneous; details: 33 mg/kg oral or subcutaneous, Lipiodol/castor oil 30%/70%
[3] = Incubation with hepatic mouse microsomes, LC-MS-MS; details: 5 μM, 45 minutes, 37° C.
Shiga toxin Stx-1 = assay type: cell-based, E. coli; details: read-out: EC50 in vitro Stx1
Shiga toxin Stx-2 = assay type: cell-based, E. coli; details: read-out: EC50 in vitro Stx2
[4] = mouse, in vivo
[5] = system: myxomatosis-derived virus MYXV-T1-ANCHOR; assay: organism not typed; assay type: cell-based; details: RK-13, read-out: EC50 in vitro MYXV
in vitro [6] = details: human
RK13 cells = details: rabbit
HeLa cells = details: human

| Compound | EC50 (VacV-ANCHOR) | CC50 (in vitro [1]) | EC50 (Shiga toxin Stx-1) | EC50 (Shiga toxin Stx-2) | EC50 [5] | CC50 (in vitro [6]) | other results |
| --- | --- | --- | --- | --- | --- | --- | --- |
| Cc1nc(-c2ccc(C3N(C)c4ccc(F)cc4C(=O)N3c3c(O)cccc3O)s2)cs1 (stereo not shown) [Compound 1, 3-(2,6-dihydroxyphenyl)-6-fluoro-1-methyl-2-(5-(2-methylthiazol-4-yl)thiophen-2-yl)-2,3-dihydroquinazolin-4(1H)-one] | 0.78 nM | 18900 nM | 16 nM | 17 nM | 6 nM | 57700 nM | pharmacokinetic properties (plasma exposure) compared with the other molecules tested [2]: best pharmacokinetic properties of all of the molecules tested; metabolism by hepatic microsomes in the presence of NADPH [3]: slowed metabolism relative to the other compounds; concentration in brain ([4]; female, BALB/c): 1700 nM; concentration in colon ([4]; female, BALB/c): 800 nM; concentration in kidneys ([4]; female, BALB/c): 400 nM; concentration in liver ([4]; female, BALB/c): 600 nM; concentration in lungs ([4]; female, BALB/c): 500 nM; concentration in plasma ([4]; female, BALB/c): 700 nM; concentration in small intestine ([4]; female, BALB/c): 2100 nM; concentration in brain (metabolite section) ([4]; female, BALB/c, sc, 33 mg/kg): 1500 nM; concentration in colon (metabolite section) ([4]; female, BALB/c, sc, 33 mg/kg): < 200 nM; concentration in kidney (metabolite section) ([4]; female, BALB/c, sc, 33 mg/kg): 500 nM; concentration in liver (metabolite section) ([4]; female, BALB/c, sc, 33 mg/kg): 1000 nM; concentration in lungs (metabolite section) ([4]; female, BALB/c, sc, 33 mg/kg): < 200 nM |
| Cc1nc(-c2ccc(C3N(C)c4ccc(F)cc4C(=O)N3c3ccccc3)s2)cs1 (stereo not shown) [Compound A] | 37.8 nM | – | 52 nM | 60 nM | 74.5 nM | > 50000 nM | CC50 (RK13 cells): 3350 nM |
| Cc1nc(-c2ccc(C3N(C)c4ccc(F)cc4C(=O)N3c3ccccc3O)s2)cs1 (stereo not shown) [Compound B] | 3.6 nM | 14000 nM | 25 nM | 22 nM | 19 nM | 39900 nM | – |
| Cc1nc(-c2ccc(C3N(C)c4ccc(F)cc4C(=O)N3c3cccc(O)c3)s2)cs1 (stereo not shown) [Compound C] | 32.2 nM | 3510 nM | 62 nM | 71 nM | 85.8 nM | 29200 nM | – |
| Cc1nc(-c2ccc(C3N(C)c4ccc(F)cc4C(=O)N3c3ccc(O)cc3)s2)cs1 (stereo not shown) [Compound D] | 628 nM | – | 483 nM | – | 5800 nM | – | CC50 (RK13 cells): 12900 nM; CC50 (HeLa cells): 20400 nM |
| Cc1nc(-c2ccc(C3N(C)c4ccc(F)cc4C(=O)N3c3cccc(O)c3O)s2)cs1 (stereo not shown) [Compound E] | 4.8 nM | 1300 nM | 32 nM | 35 nM | 11.5 nM | 8500 nM | – |
| Cc1nc(-c2ccc(C3N(C)c4ccc(F)cc4C(=O)N3c3ccc(O)cc3O)s2)cs1 (stereo not shown) [Compound F] | 27.3 nM | – | 1500 nM | – | – | 3600 nM | – |
| Cc1nc(-c2ccc(C3N(C)c4ccc(F)cc4C(=O)N3c3cc(O)ccc3O)s2)cs1 (stereo not shown) [Compound G] | 19 nM | 12600 nM | 642 nM | – | 237 nM | 36300 nM | – |
| Cc1nc(-c2ccc(C3N(C)c4ccc(F)cc4C(=O)N3c3ccc(O)c(O)c3)s2)cs1 (stereo not shown) [Compound H] | – | – | 2500 nM | – | – | – | – |
| Cc1nc(-c2ccc(C3N(C)c4ccc(F)cc4C(=O)N3c3cc(O)cc(O)c3)s2)cs1 (stereo not shown) [Compound I] | 7300 nM | 20100 nM | > 30000 nM | – | 9750 nM | 25900 nM | – |
| Cc1nc(-c2ccc(C3N(C)c4ccc(F)cc4C(=O)N3c3ccccc3N)s2)cs1 (stereo not shown) [Compound J] | 1 nM | – | 21 nM | 27 nM | 1.44 nM | > 50000 nM | CC50 (RK13 cells): 7460 nM |
| CN1c2ccc(F)cc2C(=O)N(c2c(O)cccc2O)C1c1ccc(-c2csc(CO)n2)s1 (stereo not shown) [metabolite] | – | – | – | – | – | – | presence in kidney, liver, colon, lungs and brain after treatment with compound 1 ([4]; sc, 33 mg/kg): identified in vivo |
